Laboratory results as given in US20250002507A1, “7,8-DIHYDRO-5H-1,6-NAPHTHYRIDINE DERIVATIVES AS POSITIVE ALLOSTERIC MODULATORS OF THE MUSCARINIC ACETYLCHOLINE RECEPTOR M4 FOR TREATING NEUROLOGICAL AND PSYCHIATRIC DISORDERS” (Vanderbilt University, priority 2021, published 2025).

Biological target: T1, Human M4 (Homo sapiens, UniProt P08173)
T1 construct: expressed in transfected cells
T1 sequence (P08173 1-479): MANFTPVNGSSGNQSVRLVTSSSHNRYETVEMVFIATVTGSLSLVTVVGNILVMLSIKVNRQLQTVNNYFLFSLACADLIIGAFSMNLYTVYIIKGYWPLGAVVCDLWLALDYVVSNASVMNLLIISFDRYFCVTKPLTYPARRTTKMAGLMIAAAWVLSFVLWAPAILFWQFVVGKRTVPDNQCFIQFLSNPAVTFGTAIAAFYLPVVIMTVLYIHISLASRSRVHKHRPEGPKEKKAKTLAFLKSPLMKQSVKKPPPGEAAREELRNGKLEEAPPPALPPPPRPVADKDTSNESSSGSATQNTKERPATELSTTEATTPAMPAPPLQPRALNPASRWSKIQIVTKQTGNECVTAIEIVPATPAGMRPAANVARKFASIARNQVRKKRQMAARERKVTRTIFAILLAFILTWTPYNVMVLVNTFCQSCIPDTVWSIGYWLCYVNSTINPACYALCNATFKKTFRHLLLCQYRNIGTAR
Test: mAChR M4 cell-based functional assay (calcium flux, potentiation of EC20 acetylcholine response), hM4-Gqi5 CHO-K1 cells
Settings: for Emax at 30 µM: CHO-K1, % ACh maximum at 30 μM, human M4, read-out: Emax; for EC50: hM4-Gqi5 CHO-K1 cells, calcium flux, PAM of EC20 acetylcholine, read-out: Human M4 EC50
Procedure, shortened: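 CHO-K1 cells stably expressing human M4 with chimeric Gqi5, loaded with Fluo-4 AM 50 min at 37 °C; calcium flux read by FDSS. 11-point 1:3 compound curves added, then EC20 acetylcholine at 144 s; potentiation of the EC20 response fitted by four-parameter logistic to give EC50 and Emax.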

SMILES	Emax at 30 µM [%]	EC50 [nM]
[2H]c1nnc2c(C)c(C)c(N3CCc4ncc(Nc5ccccc5F)cc4C3)nn12 [Compound 71, 6-(3-deuterio-7,8-dimethyl-[1,2,4]triazolo[4,3-b]pyridazin-6-yl)-N-(2-fluorophenyl)-7,8-dihydro-5H-1,6-naphthyridin-3-amine]	102	65.6
[2H]c1nnc2c(C)c(C)c(N3CCc4ncc(-c5c(C)noc5C)cc4C3)nn12 [Compound 74, 4-[6-(3-deuterio-7,8-dimethyl-[1,2,4]triazolo[4,3-b]pyridazin-6-yl)-7,8-dihydro-5H-1,6-naphthyridin-3-yl]-3,5-dimethyl-isoxazole]	103	108
[2H]c1nnc2c(C)c(C)c(N3CCc4ncc(-c5c(C)nn(C)c5C)cc4C3)nn12 [Compound 75, 6-(3-deuterio-7,8-dimethyl-[1,2,4]triazolo[4,3-b]pyridazin-6-yl)-3-(1,3,5-trimethylpyrazol-4-yl)-7,8-dihydro-5H-1,6-naphthyridine]	99	164
[2H]c1nnc2c(C)c(C)c(N3CCc4ncc(-c5cn(C)nc5C)cc4C3)nn12 [Compound 76, 6-(3-deuterio-7,8-dimethyl-[1,2,4]triazolo[4,3-b]pyridazin-6-yl)-3-(1,3-dimethylpyrazol-4-yl)-7,8-dihydro-5H-1,6-naphthyridine]	101	127
[2H]c1nnc2c(C)c(C)c(N3CCc4ncc(-c5cncs5)cc4C3)nn12 [Compound 78, 5-[6-(3-deuterio-7,8-dimethyl-[1,2,4]triazolo[4,3-b]pyridazin-6-yl)-7,8-dihydro-5H-1,6-naphthyridin-3-yl]thiazole]	92	63.9
Cc1ccc(Nc2cnc3c(c2)CN(c2nn4cnnc4c(C)c2C)CC3)c(F)n1 [Compound 81, 6-(7,8-dimethyl-[1,2,4]triazolo[4,3-b]pyridazin-6-yl)-N-(2-fluoro-6-methyl-3-pyridyl)-7,8-dihydro-5H-1,6-naphthyridin-3-amine]	94	169
Cc1c(N2CCc3ncc(Nc4cc(F)ccc4F)cc3C2)nn2c(C)nnc2c1C [Compound 84, N-(2,5-difluorophenyl)-6-(3,7,8-trimethyl-[1,2,4]triazolo[4,3-b]pyridazin-6-yl)-7,8-dihydro-5H-1,6-naphthyridin-3-amine]	99	210
Cc1c(N2CCc3ncc(Nc4cc(F)cc(F)c4F)cc3C2)nn2c(C)nnc2c1C [Compound 85, N-(2,3,5-trifluorophenyl)-6-(3,7,8-trimethyl-[1,2,4]triazolo[4,3-b]pyridazin-6-yl)-7,8-dihydro-5H-1,6-naphthyridin-3-amine]	92	352
Cc1noc(C)c1-c1cnc2c(c1)CN(c1nn3c(C)nnc3c(C)c1C)CC2 [Compound 86, 3,5-dimethyl-4-[6-(3,7,8-trimethyl-[1,2,4]triazolo[4,3-b]pyridazin-6-yl)-7,8-dihydro-5H-1,6-naphthyridin-3-yl]isoxazole]	84	227
Cc1nn(C)c(C)c1-c1cnc2c(c1)CN(c1nn3c(C)nnc3c(C)c1C)CC2 [Compound 87, 3-(1,3,5-trimethylpyrazol-4-yl)-6-(3,7,8-trimethyl-[1,2,4]triazolo[4,3-b]pyridazin-6-yl)-7,8-dihydro-5H-1,6-naphthyridine]	89	188
Cc1c(N2CCc3ncc(-c4cnn(CC5CC5)c4)cc3C2)nn2c(C)nnc2c1C [Compound 89, 3-[1-(cyclopropylmethyl)pyrazol-4-yl]-6-(3,7,8-trimethyl-[1,2,4]triazolo[4,3-b]pyridazin-6-yl)-7,8-dihydro-5H-1,6-naphthyridine]	91	291
Cc1nn(C)c(C)c1-c1cnc2c(c1)CN(c1nn3c(C(F)(F)F)nnc3c(C)c1C)CC2 [Compound 93, 6-[7,8-dimethyl-3-(trifluoromethyl)-[1,2,4]triazolo[4,3-b]pyridazin-6-yl]-3-(1,3,5-trimethylpyrazol-4-yl)-7,8-dihydro-5H-1,6-naphthyridine]	93	173

Continued by falling EC50, values first:

Emax at 30 µM [%]	EC50 [nM]	SMILES
106	1790	Cc1c(N2CCc3ncc(Nc4cc(F)cc(F)c4F)cc3C2)nn2c(C(F)(F)F)nnc2c1C [Compound 91, 6-[7,8-dimethyl-3-(trifluoromethyl)-[1,2,4]triazolo[4,3-b]pyridazin-6-yl]-N-(2,3,5-trifluorophenyl)-7,8-dihydro-5H-1,6-naphthyridin-3-amine]
96	386	Cc1c(N2CCc3ncc(Nc4ccc(Cl)cc4F)cc3C2)nn2cnnc2c1C [Compound 68, N-(4-chloro-2-fluoro-phenyl)-6-(7,8-dimethyl-[1,2,4]triazolo[4,3-b]pyridazin-6-yl)-7,8-dihydro-5H-1,6-naphthyridin-3-amine]
99	361	Cc1c(N2CCc3ncc(Nc4ccccc4F)cc3C2)nn2c(C)nnc2c1C [Compound 83, N-(2-fluorophenyl)-6-(3,7,8-trimethyl-[1,2,4]triazolo[4,3-b]pyridazin-6-yl)-7,8-dihydro-5H-1,6-naphthyridin-3-amine]
90	296	Cc1ccc(F)c(Nc2cnc3c(c2)CN(c2nn4cnnc4c(C)c2C)CC3)c1 [Compound 69, 6-(7,8-dimethyl-[1,2,4]triazolo[4,3-b]pyridazin-6-yl)-N-(2-fluoro-5-methyl-phenyl)-7,8-dihydro-5H-1,6-naphthyridin-3-amine]
101	269	Cc1c(N2CCc3ncc(-c4cncs4)cc3C2)nn2c(C)nnc2c1C [Compound 90, 5-[6-(3,7,8-trimethyl-[1,2,4]triazolo[4,3-b]pyridazin-6-yl)-7,8-dihydro-5H-1,6-naphthyridin-3-yl]thiazole]
89	216	[2H]c1nnc2c(C)c(C)c(N3CCc4ncc(-c5cnn(CC6CC6)c5)cc4C3)nn12 [Compound 77, 3-[1-(cyclopropylmethyl)pyrazol-4-yl]-6-(3-deuterio-7,8-dimethyl-[1,2,4]triazolo[4,3-b]pyridazin-6-yl)-7,8-dihydro-5H-1,6-naphthyridine]
101	205	Cc1c(N2CCc3ncc(Nc4ccc(F)cc4F)cc3C2)nn2cnnc2c1C [Compound 70, N-(2,4-difluorophenyl)-6-(7,8-dimethyl-[1,2,4]triazolo[4,3-b]pyridazin-6-yl)-7,8-dihydro-5H-1,6-naphthyridin-3-amine]
79	199	Cc1noc(C)c1-c1cnc2c(c1)CN(c1nn3c(C(F)(F)F)nnc3c(C)c1C)CC2 [Compound 92, 4-[6-[7,8-dimethyl-3-(trifluoromethyl)-[1,2,4]triazolo[4,3-b]pyridazin-6-yl]-7,8-dihydro-5H-1,6-naphthyridin-3-yl]-3,5-dimethyl-isoxazole]
97	195	Cc1nn(C)cc1-c1cnc2c(c1)CN(c1nn3c(C)nnc3c(C)c1C)CC2 [Compound 88, 3-(1,3-dimethylpyrazol-4-yl)-6-(3,7,8-trimethyl-[1,2,4]triazolo[4,3-b]pyridazin-6-yl)-7,8-dihydro-5H-1,6-naphthyridine]
62	180	Cc1c(N2CCc3ncc(Nc4ncc(F)cc4F)cc3C2)nn2cnnc2c1C [Compound 79, N-(3,5-difluoro-2-pyridyl)-6-(7,8-dimethyl-[1,2,4]triazolo[4,3-b]pyridazin-6-yl)-7,8-dihydro-5H-1,6-naphthyridin-3-amine]
72	176	Cc1c(N2CCc3ncc(Nc4ncccc4F)cc3C2)nn2cnnc2c1C [Compound 80, 6-(7,8-dimethyl-[1,2,4]triazolo[4,3-b]pyridazin-6-yl)-N-(3-fluoro-2-pyridyl)-7,8-dihydro-5H-1,6-naphthyridin-3-amine]
100	175	Cc1nn(C)cc1-c1cnc2c(c1)CN(c1nn3c(C(F)(F)F)nnc3c(C)c1C)CC2 [Compound 94, 3-(1,3-dimethylpyrazol-4-yl)-6-[7,8-dimethyl-3-(trifluoromethyl)-[1,2,4]triazolo[4,3-b]pyridazin-6-yl]-7,8-dihydro-5H-1,6-naphthyridine]
99	119	Cc1c(N2CCc3ncc(Nc4cccnc4F)cc3C2)nn2cnnc2c1C [Compound 82, 6-(7,8-dimethyl-[1,2,4]triazolo[4,3-b]pyridazin-6-yl)-N-(2-fluoro-3-pyridyl)-7,8-dihydro-5H-1,6-naphthyridin-3-amine]
92	114	[2H]c1nnc2c(C)c(C)c(N3CCc4ncc(Nc5cc(F)cc(F)c5F)cc4C3)nn12 [Compound 73, 6-(3-deuterio-7,8-dimethyl-[1,2,4]triazolo[4,3-b]pyridazin-6-yl)-N-(2,3,5-trifluorophenyl)-7,8-dihydro-5H-1,6-naphthyridin-3-amine]
97	49.7	[2H]c1nnc2c(C)c(C)c(N3CCc4ncc(Nc5cc(F)ccc5F)cc4C3)nn12 [Compound 72, 6-(3-deuterio-7,8-dimethyl-[1,2,4]triazolo[4,3-b]pyridazin-6-yl)-N-(2,5-difluorophenyl)-7,8-dihydro-5H-1,6-naphthyridin-3-amine]
